This is an account of results in US4381305A, “Ethylenediamine derivatives and pharmaceutical compositions containing same” (Simes S.p.A., priority 1980, dated 1983).

Structures are written as SMILES.

The assay deals with rabbit's isolated aorta. Briefly: KCl-induced contraction of the rabbit's isolated aorta (antispasmodic activity on the smooth muscles). The format is cell-based. Conditions: Oryctolagus cuniculus, Godfraind method, read-out: ED50 (the source's name). The text has this:
The compounds of the present invention are endowed with antispasmodic activity on the smooth muscles with has been established with the test of KCl--induced contraction of the rabbit's isolated aorta according to Godfraind and coll. (Arch. Int. Pharmacodyn., 172, 235, 1968).
`COc1cc(CN(C)CCN(C)CCC(c2ccccc2)c2ccccc2)cc(OC)c1OC` [N1,N2-dimethyl-N1-(3,4,5-trimethoxybenzyl)-N2-(3,3-diphenylpropyl)-ethylenediamine dimaleate]: the IC50 was 1.3 mg/L.
The result for `COc1ccc(C(O)(CCN(C)CCN(C)Cc2ccccc2)c2ccc(OC)cc2)cc1` [N1,N2-dimethyl-N1-benzyl-N2-(3,3-di-p-methoxyphenyl-3-hydroxypropyl)-ethylenediamine dimaleate] reads 5.2 mg/L.
As for `CN(CC=C(c1ccccc1)c1ccccc1)CCN(C)Cc1ccccc1` [N1,N2-dimethyl-N1-benzyl-N2-(3,3-diphenylallyl)-ethylenediamine dimaleate], the IC50 came out at 2.1 mg/L.
To `CN(CCC(c1ccccc1)c1ccccc1)CCN(C)Cc1ccccc1` [N1,N2-dimethyl-N1-benzyl-N2-(3,3-diphenylpropyl)-ethylenediamine dimaleate] belongs 4.6 mg/L.
